For experiment [1], the system named is Lactobacillus paracasei overexpressing GroESL. The note with it: GroESL overexpression; equals 0.4% weight/volume (w/v); cited from earlier work.
Experiment [2] concerns Lactococcus lactis overexpressing GroESL. As to conditions: GroESL overexpression; equals 0.4% weight/volume (w/v); cited from earlier work.
Experiment [3] relates to PN1011. The note with it: liquid medium, 37° C. As to the method: (§1) The growth data was used to calculate the percent growth inhibition caused by 1-butanol by subtracting the percent growth ([…]; where T0OD600 is the initial optical density at the starting time and T5OD600 is the optical density after 5 h) from 100%.

Experiment [4] deals with PN1042. The note with it: liquid medium, 37° C. As to the method:
as §1

Experiment [5] relates to most microorganisms described in the art. As to conditions: liquid medium, 37° C.; cited from earlier work.
The test system of experiment [6] is identified tolerant strains. Put plainly: Expected growth on solid medium, inferred from IC50 values and correlation with 1-butanol tolerance. In kind it is cell-based, Pediococcus.

With `CCCCO` [1-butanol], the “concentration at which strain was able to grow” value in experiment [1] and in experiment [2] was 0.5 % volume/volume (v/v) each time. Besides, the “growth in the presence of 1-butanol” value in experiment [3] (PN1011, 3% (w/v) 1-butanol) is listed as “low levels of growth”; in experiment [4] (PN1042, 3% (w/v) 1-butanol) it was “low levels of growth”. Further, the percent growth inhibition came to 100% in experiment [3] (PN1011, 3.5% (w/v) 1-butanol, OD600 over 5 h) and 100% in experiment [4] (PN1042, 3.5% (w/v) 1-butanol, OD600 over 5 h). In experiment [5], the “concentration at which growth is totally inhibited” value is “less than 2.0 % w/v”.
Take `CCC(C)O` (stereo not shown) [2-butanol]: the “concentration in solid medium on which strains are expected to grow” value (from here on “concentration in solid medium”) in experiment [6] is listed as 4.0 % w/v.
`CCC(C)=O` [2-butanone]: in experiment [6], the “concentration in solid medium” value turned out to be 6.0 % w/v.
In the case of `CC(C)CO` [isobutanol], the “concentration in solid medium” value in experiment [6] was determined as 3.5 % w/v.

(Values after patent US8017364B2, “Solvent tolerant microorganisms” (Butamax(TM) Advanced Biofuels LLC, priority 2006, dated 2011).)
